According to patent publication US6008372A, “Substituted dinaphthylmethyl and diheteroarylmethylacetyl histidine inhibitors of protein farnesyltransferase” (Warner-Lambert Company, priority 1998, dated 1999):
Like-named read-outs stand apart in the source and are kept apart here.

Key:
[1] = test system: Ras farnesylation in H-ras Me 12/+ cells; experiment: Gel shift assay: inhibition of Ras farnesylation in H-ras Me 12/+ cells; assay type: cell-based; conditions: 18-hour incubation, read-out: Inhibition of Ras Farnesylation (Minimum Effective Dose)
Method: (§1) Twenty-four hours after planting 2×10^6 ras-transformed cells per treatment condition, the farnesylation inhibitor is added at varying concentrations. Following an 18-hour incubation period, cells are lysed in phosphate-buffered saline containing 1% Triton X-100, 0.5% sodium deoxycholate, and 0.1% SDS, pH 7.4 in the presence of several protease inhibitors (PMSF, antipain, leupeptin, pepstatin A, and aprotinin all at 1 μg/mL). Ras protein is immunoprecipitated from the supernatants by the addition of 3 μg v-H-ras Ab-2 (Y13-259 antibody from Oncogene Science). After overnight immunoprecipitation, 30 μL of a 50% protein G-Sepharose slurry (Pharmacia) is added followed by 45-minute incubation. Pellets are resuspended in 2× tris-glycine loading buffer (Novex) containing 5% B-mercaptoethanol and then denatured by 5 minutes boiling prior to electrophoresis on 14% Tris-glycine SDS gels. Using Western transfer techniques, proteins are transferred to nitrocellulose membranes followed by blocking in blocking buffer. Upon overnight incubation with primary antibody (pan-ras Ab-2 from Oncogene Science), an antimouse HRP conjugate secondary antibody (Amersham) is employed for detection of the ras protein. Blots are developed using ECL techniques (Amersham).
(§2) The data in Table 1 show farnesyl protein transferase inhibitory activity, and activity in the gel shift assay against ras protein of selected compounds of Formula I.

[2] = test system: Ras farnesylation in H-ras-NIH3T3 cells; experiment: Gel shift assay: inhibition of Ras farnesylation in H-ras-NIH3T3 cells; assay type: cell-based; conditions: 18-hour incubation, read-out: Inhibition of Ras Farnesylation (Minimum Effective Dose)
Method: as §1, §2

[3] = molecular target: T1, rat brain farnesyl protein transferase (Rattus norvegicus, UniProt Q02293+Q04631); experiment: Protein:farnesyltransferase (PFT/FPT) inhibitory activity assay; assay type: biochemical
T1 construct: 40-fold purified rat brain farnesyl protein transferase; from tissue; host or cells: rat brain

[4] = test system: human lung carcinoma with a k-ras mutation; conditions: nude mice; cited from earlier work
[5] = Hepes (without 5 mM phosphate), read-out: Farnesyl Protein Transferase Inhibition, Hepes, IC50
[6] = Hepes/5 mM PO4^-3, pH 7.4, read-out: Farnesyl Protein Transferase Inhibition, Hepes/5 mM PO4^-3, IC50

| IC50 [3, 5] [nM] | IC50 [3, 6] [nM] | SMILES | minimal effective concentration [1] [µM] | minimal effective concentration [2] [µM] | blocks the growth of a human lung carcinoma with a k-ras mutation [4] |
| --- | --- | --- | --- | --- | --- |
| 260 | 300 | COC(=O)[C@H](Cc1c[nH]cn1)NC(=O)C(Cc1cccc2ccccc12)Cc1cccc2ccccc12 [Example 1, (S)-3-(1H-Imidazol-4-yl)-2-(3-naphthalen-1-yl-2-naphthalen-1-ylmethyl-propionylamino)-propionic acid, methyl ester] | 2.5 | 5 |  |
| 420 | 220 | COC(=O)[C@H](Cc1cncn1C)NC(=O)C(Cc1cccc2ccccc12)Cc1cccc2ccccc12 [Example 6, (S)-3-(3-Methyl-3H-imidazol-4-yl)-2-(3-naphthalen-1-yl-2-naphthalen-1-ylmethyl-propionylamino)-propionic acid, methyl ester] | 1 | 2.5 |  |
| 180 | 160 | CC(C)OC(=O)[C@H](Cc1c[nH]cn1)NC(=O)C(Cc1cccc2ccccc12)Cc1cccc2ccccc12 [Example 8, (S)-3-(1H-Imidazol-4-yl)-2-(3-naphthalen-1-yl-2-naphthalen-1-ylmethyl-propionylamino)-propionic acid, isopropyl ester] | 5 | 5 |  |
| 740 | 550 | O=C(N[C@@H](Cc1c[nH]cn1)C(=O)NCCOCc1ccccc1)C(Cc1cccc2ccccc12)Cc1cccc2ccccc12 [Example 23, (S)-N-[1-(2-Benzyloxy-ethylcarbamoyl)-2-(1H-imidazol-4-yl)-ethyl]-3-naphthalen-1-yl-2-naphthalen-1-ylmethyl-propionamide] | 5 |  |  |
| 4800 | 3900 | O=C(N[C@@H](Cc1c[nH]cn1)C(=O)NCCc1c[nH]cn1)C(Cc1cccc2ccccc12)Cc1cccc2ccccc12 [Example 27, (S)-N-{2-(1H-Imidazol-4-yl)-1-[2-(1H-imidazol-4-yl)-ethylcarbamoyl]-ethyl}-3-naphthalen-1-yl-2-naphthalen-1-ylmethyl-propionamide] | 10 |  |  |
| 610 | 440 | CNC(=O)[C@H](Cc1c[nH]cn1)NC(=O)C(Cc1cccc2ccccc12)Cc1cccc2ccccc12 [Example 33, (S)-N-[2-(1H-Imidazol-4-yl)-1-methylcarbamoyl-ethyl]-3-naphthalen-1-yl-2-naphthalen-1-ylmethyl-propionamide] | 1 | 1 |  |
| 310 | 370 | COC(=O)[C@H](Cc1c[nH]cn1)NC(=O)C(CC1CCCC2CCCCC21)CC1CCCC2CCCCC21 (stereo partly drawn) [Example 36, (S)-2-[3-(Decahydro-naphthalen-1-yl)-2-(decahydro-naphthalen-1-ylmethyl)-propionylamino]-3-(1H-imidazol-4-yl)-propionic acid, methyl ester] | 25 |  |  |
| 420 | 180 | COC(=O)[C@H](Cc1c[nH]cn1)NC(=O)C(Cc1cccc2c1CCCC2)Cc1cccc2c1CCCC2 [Example 37, (S)-3-(1H-Imidazol-4-yl)-2-[3-(5,6,7,8-tetrahydro-naphthalen-1-yl)-2-(5,6,7,8-tetrahydro-naphthalen-1-ylmethyl)-propionylamino]-propionic acid, methyl ester] | 10 |  |  |
|  |  | CSCC[C@H](NC(=O)c1ccc(NC[C@@H](N)CS)cc1-c1ccccc1)C(=O)O [FTI-276] |  |  | blocks the growth in nude mice of a human lung carcinoma with a k-ras mutation |
